Source: article PMC5991599, “Anti‐tumor efficacy of a novel CLK inhibitor via targeting RNA splicing and MYC‐dependent vulnerability” (EMBO Molecular Medicine, 2018)

Assays:
FLT3 D835Y = biological target: T1, FLT3 D835Y (Homo sapiens, UniProt P36888, D835Y); test: KINOMEScan-based kinase selectivity assay; assay type: binding; settings: 300 nmol/L, n = 2
T1 construct: purchased DiscoverX Corporation (Fremont, CA, USA)
Method: (§1) The KINOMEScan‐based kinase selectivity assay was performed at the DiscoverX Corporation (Fremont, CA, USA). The panel of growth inhibition assay and subsequent bioinformatics analysis (Fig EV1) were performed at Eurofins Inc. (St. Charles, MO, USA), using OncoPanel 240 or 60. Details of the procedures of cell proliferation assay, caspase‐3/7 activity assay, immunoblotting, and immunohistochemistry are described in Appendix Supplementary Methods.

HIPK3 = biological target: T2, HIPK3 (Homo sapiens, UniProt Q9H422); test: KINOMEScan-based kinase selectivity assay; assay type: binding; settings: 300 nmol/L, n = 2
T2 construct: purchased DiscoverX Corporation (Fremont, CA, USA)
Method: as §1

HIPK4 = biological target: T3, HIPK4 (Homo sapiens, UniProt Q8NE63); test: KINOMEScan-based kinase selectivity assay; assay type: binding; settings: 300 nmol/L, n = 2
T3 construct: purchased DiscoverX Corporation (Fremont, CA, USA)
Method: as §1

786-O = test: Cell proliferation assay (CellTiter-Glo); assay type: cell-based; settings: Homo sapiens, 786-0; 72 h treatment; kidney cancer; read-out: IC50 (growth inhibition)
Method: (§2) Cell proliferation assay, Caspase-3/7 assay
(§3) Cell proliferation was measured using CellTiter-Glo luminescent cell viability
(§4) assay (Promega, Fitchburg, WI, U.S.A.). Caspase-3/7 activity was measured using
(§5) Caspase-Glo 3/7 Assay Systems (Promega). Luminescence of each well was measured
(§6) using ARVO Light (PerkinElmer Inc., Waltham, MA, U.S.A.). The IC50 value and 95%
(§7) confidential intervals were estimated using GraphPad Prism 5 (GraphPad Software,
(§8) Inc., La Jolla, CA, U.S.A.). […]

BJ = test: Cell proliferation assay (CellTiter-Glo); assay type: cell-based; settings: Homo sapiens, 72 h treatment, normal skin fibroblast, read-out: IC50 (growth inhibition)
Method: as §2, §3, §4, §5, §6, §7, §8

COLO320HSR = test: Cell proliferation assay (CellTiter-Glo); assay type: cell-based; settings: Homo sapiens, COLO-320-HSR; 72 h treatment; colorectal cancer; read-out: IC50 (growth inhibition)
Method: as §2, §3, §4, §5, §6, §7, §8

MDA-MB-468 = test: Cell proliferation assay (CellTiter-Glo); assay type: cell-based; settings: Homo sapiens, 72 h treatment, breast cancer, read-out: IC50 (growth inhibition)
Method: as §2, §3, §4, §5, §6, §7, §8

NCI-H1048 = test: Cell proliferation assay (CellTiter-Glo); assay type: cell-based; settings: Homo sapiens, 72 h treatment, lung cancer, read-out: IC50 (growth inhibition)
Method: as §2, §3, §4, §5, §6, §7, §8

Wi38 = test: Cell proliferation assay (CellTiter-Glo); assay type: cell-based; settings: Homo sapiens, WI-38; 72 h treatment; normal lung fibroblast; read-out: IC50 (growth inhibition)
Method: as §2, §3, §4, §5, §6, §7, §8

[1] = system: xenografts derived from AML patient (PDX); test: Efficacy study in patient-derived xenograft model of acute myeloid leukemia; assay type: in vivo, NOG mice; settings: 25 and 50 mg/kg, twice daily at twice weekly
Text: To establish the patient‐derived xenograft model, a small piece of tumor purchased from Dr. Naoe at Nagoya University was subcutaneously inoculated into NOG mice (7‐ to 8‐week‐old females, CIEA Japan, Inc., Kanagawa, Japan). After three rounds of in vivo propagation, tumors were used for efficacy assessment.
Tumor volume=long diameter×short diameter×short diameter×(1/2)
Mice having a tumor of size approximately 200 mm^3 were used in efficacy or in vivo pharmacodynamics studies. T‐025 was dissolved in 0.5% methylcellulose solution. For the efficacy study, after randomized grouping, mice were treated with T‐025 twice daily once or twice weekly for 2 or 3 weeks. The mouse tumor volume and body weight were measured every 2–3 days.

DYRK1B = DYRK1B (Homo sapiens, UniProt Q9Y463); test: KINOMEScan-based kinase selectivity assay; assay type: binding; design: purchased DiscoverX Corporation (Fremont, CA, USA)
Method: as §1, with “Charles, MO, USA), using OncoPanel 240 or 60.” left out

HIPK2 = HIPK2 (Homo sapiens, UniProt Q9H2X6); test: KINOMEScan-based kinase selectivity assay; assay type: binding; design: purchased DiscoverX Corporation (Fremont, CA, USA)
Method: as §1, with “Charles, MO, USA), using OncoPanel 240 or 60.” left out

Sequence of HIPK2 (Q9H2X6 whole entry): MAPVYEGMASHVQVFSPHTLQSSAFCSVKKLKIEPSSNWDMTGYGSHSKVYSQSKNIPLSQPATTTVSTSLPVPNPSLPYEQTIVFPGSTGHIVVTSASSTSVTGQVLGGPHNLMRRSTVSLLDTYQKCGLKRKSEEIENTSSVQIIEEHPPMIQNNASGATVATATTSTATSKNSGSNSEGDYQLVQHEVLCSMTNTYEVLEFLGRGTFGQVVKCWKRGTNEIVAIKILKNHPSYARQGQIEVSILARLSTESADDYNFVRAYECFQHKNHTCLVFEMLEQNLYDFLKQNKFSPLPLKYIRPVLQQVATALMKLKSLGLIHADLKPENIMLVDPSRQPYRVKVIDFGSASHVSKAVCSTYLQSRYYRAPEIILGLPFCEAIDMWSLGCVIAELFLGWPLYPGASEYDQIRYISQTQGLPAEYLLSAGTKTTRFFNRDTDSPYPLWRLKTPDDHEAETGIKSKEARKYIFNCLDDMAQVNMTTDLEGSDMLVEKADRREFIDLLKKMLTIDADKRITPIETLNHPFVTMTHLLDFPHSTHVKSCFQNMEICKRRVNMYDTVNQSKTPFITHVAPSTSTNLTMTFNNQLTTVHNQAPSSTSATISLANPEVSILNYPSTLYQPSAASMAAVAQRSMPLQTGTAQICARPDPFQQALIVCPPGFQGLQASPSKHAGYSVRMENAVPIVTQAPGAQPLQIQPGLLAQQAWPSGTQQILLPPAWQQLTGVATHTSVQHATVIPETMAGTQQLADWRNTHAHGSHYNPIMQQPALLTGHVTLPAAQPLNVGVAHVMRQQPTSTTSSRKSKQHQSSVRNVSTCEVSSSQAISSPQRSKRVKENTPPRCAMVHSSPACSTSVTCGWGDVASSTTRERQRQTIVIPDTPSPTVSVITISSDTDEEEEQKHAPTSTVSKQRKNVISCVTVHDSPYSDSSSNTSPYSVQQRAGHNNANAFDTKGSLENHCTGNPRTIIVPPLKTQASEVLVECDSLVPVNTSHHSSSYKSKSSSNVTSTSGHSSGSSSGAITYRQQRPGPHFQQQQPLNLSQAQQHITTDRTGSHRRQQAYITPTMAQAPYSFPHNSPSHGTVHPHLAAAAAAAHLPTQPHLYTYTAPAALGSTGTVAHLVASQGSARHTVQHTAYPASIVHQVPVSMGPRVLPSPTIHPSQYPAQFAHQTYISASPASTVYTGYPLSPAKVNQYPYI
Sequence of DYRK1B (Q9Y463 whole entry): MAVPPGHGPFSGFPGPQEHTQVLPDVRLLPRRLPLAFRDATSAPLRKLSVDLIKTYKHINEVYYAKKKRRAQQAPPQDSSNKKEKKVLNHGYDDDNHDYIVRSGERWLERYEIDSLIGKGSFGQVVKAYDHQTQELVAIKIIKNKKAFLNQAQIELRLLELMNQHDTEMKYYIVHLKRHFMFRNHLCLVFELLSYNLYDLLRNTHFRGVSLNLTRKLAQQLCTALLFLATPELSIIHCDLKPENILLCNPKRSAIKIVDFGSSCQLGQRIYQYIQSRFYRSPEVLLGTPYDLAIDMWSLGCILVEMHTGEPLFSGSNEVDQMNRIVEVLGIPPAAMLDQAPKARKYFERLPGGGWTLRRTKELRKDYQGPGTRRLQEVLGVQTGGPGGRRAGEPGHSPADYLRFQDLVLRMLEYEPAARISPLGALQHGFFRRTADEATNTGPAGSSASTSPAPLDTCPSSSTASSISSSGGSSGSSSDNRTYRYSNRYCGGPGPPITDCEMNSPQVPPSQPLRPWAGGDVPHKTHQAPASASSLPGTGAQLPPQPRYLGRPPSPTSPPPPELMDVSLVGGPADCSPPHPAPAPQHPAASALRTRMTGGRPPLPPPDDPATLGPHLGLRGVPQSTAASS
T2 sequence (Q9H422 whole entry): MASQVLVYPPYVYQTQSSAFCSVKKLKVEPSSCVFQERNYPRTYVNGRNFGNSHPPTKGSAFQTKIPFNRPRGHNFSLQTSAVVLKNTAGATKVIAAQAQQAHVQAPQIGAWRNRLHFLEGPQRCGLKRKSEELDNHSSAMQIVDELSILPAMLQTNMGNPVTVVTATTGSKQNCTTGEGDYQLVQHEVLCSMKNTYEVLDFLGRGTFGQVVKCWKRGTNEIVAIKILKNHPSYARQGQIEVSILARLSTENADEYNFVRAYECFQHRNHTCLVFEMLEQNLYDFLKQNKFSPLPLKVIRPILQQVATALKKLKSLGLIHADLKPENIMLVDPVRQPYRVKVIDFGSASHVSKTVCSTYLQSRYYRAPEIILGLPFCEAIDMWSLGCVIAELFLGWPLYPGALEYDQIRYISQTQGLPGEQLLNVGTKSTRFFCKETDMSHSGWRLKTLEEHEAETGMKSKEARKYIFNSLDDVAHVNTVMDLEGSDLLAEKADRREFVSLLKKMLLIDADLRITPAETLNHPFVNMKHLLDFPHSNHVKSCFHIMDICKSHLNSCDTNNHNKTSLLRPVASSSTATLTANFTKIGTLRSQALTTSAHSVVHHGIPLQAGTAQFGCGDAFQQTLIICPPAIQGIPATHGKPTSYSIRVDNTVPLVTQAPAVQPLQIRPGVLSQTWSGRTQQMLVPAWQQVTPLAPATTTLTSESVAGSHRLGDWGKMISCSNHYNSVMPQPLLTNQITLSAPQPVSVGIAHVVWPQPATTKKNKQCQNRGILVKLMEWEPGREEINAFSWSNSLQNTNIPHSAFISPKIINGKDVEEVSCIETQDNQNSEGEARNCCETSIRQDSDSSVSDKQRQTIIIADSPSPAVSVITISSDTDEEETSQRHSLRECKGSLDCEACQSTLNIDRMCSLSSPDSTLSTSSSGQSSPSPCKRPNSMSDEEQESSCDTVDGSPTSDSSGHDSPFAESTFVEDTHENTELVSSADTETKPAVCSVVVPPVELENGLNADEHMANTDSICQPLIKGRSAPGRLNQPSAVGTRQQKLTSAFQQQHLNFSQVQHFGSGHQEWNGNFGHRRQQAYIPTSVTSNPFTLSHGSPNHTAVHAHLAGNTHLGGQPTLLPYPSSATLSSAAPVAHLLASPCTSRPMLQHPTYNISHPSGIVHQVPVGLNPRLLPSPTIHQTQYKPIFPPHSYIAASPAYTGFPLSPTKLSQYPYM
T3 sequence (Q8NE63 whole entry): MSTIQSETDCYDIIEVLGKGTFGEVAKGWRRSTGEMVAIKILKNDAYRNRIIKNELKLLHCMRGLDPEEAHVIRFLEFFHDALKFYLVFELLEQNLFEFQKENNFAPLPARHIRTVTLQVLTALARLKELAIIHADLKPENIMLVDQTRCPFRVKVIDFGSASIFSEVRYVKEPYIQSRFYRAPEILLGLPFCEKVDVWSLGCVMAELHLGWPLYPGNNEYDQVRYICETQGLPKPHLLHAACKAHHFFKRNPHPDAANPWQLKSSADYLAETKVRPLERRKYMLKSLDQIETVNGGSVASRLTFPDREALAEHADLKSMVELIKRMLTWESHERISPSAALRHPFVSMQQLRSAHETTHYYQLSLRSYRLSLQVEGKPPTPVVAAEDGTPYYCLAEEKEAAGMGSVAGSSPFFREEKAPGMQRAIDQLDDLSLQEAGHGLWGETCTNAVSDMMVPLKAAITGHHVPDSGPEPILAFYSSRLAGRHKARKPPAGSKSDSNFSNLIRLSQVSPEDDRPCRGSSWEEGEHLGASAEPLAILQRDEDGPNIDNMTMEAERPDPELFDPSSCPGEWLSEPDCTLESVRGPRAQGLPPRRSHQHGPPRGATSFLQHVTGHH

With `CNc1nc(NCc2ncccn2)c2c(-c3ccc4ncccc4c3)c[nH]c2n1` [T-025, N ^2‐methyl‐N ^4‐[pyrimidin‐2‐ylmethyl]‐5‐[quinolin‐6‐yl]‐7H‐pyrrolo[2,3‐d]pyrimidine‐2,4‐diamine] the inhibition at 0.3 µM (FLT3 D835Y) was 93.3%, the inhibition at 0.3 µM (HIPK3) was 95.1% and the inhibition at 0.3 µM (HIPK4) was 95.6%. The IC50 (786-O) was 340 nM, the IC50 (BJ) was 355 nM and the IC50 (COLO320HSR) was 91.8 nM. It also gave an IC50 (MDA-MB-468) of 79.8 nM, an IC50 (NCI-H1048) of 84.4 nM and an IC50 (Wi38) of 257 nM. For the same compound, the “anti-tumor efficacy, tumor volume” value [1] was “profound anti‐tumor efficacies”, the Kd (DYRK1B) was 1.5 nM and the inhibition at 0.3 µM (DYRK1B; 300 nmol/L, n = 2) was 99.6%. For the same compound, the Kd (HIPK2) was 96 nM and the inhibition at 0.3 µM (HIPK2; 300 nmol/L, n = 2) was 96%.
